Reference: ChEMBL document CHEMBL1201862, “PubChem BioAssay data set” (2004)
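All cell lines were grown in 96-well plates and treated with compound for 48 hours. GI50 marks 50% less growth.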 Calls of active or inactive are those of the source. No stated cut-off is given here; in the data, active = GI50 up to about 1.1 µM and inactive = higher.

Key:
Test in all cases: growth of human tumour cells (NCI), 48 h
RXF 393 = test system: RXF 393
UACC-62 = test system: UACC-62
MDA-N = test system: MDA-N
A549 = test system: A549
HT-29 = test system: HT-29
Malme-3M = test system: Malme-3M
NCI-H522 = test system: NCI-H522
NCI-H23 = test system: NCI-H23
BT-549 = test system: BT-549
NCI/ADR-RES = test system: NCI/ADR-RES
KM12 = test system: KM12
NCI-H226 = test system: NCI-H226
COLO 205 = test system: COLO 205
OVCAR-5 = test system: OVCAR-5
HOP-92 = test system: HOP-92
SK-MEL-5 = test system: SK-MEL-5
RPMI-8226 = test system: RPMI-8226
A498 = test system: A498
EKVX = test system: EKVX
HOP-62 = test system: HOP-62

Structure (SMILES) | GI50 (RXF 393) | GI50 (UACC-62) | GI50 (MDA-N) | GI50 (A549) | GI50 (HT-29) | GI50 (Malme-3M) | GI50 (NCI-H522) | GI50 (NCI-H23) | GI50 (BT-549) | GI50 (NCI/ADR-RES) | GI50 (KM12) | GI50 (NCI-H226) | GI50 (COLO 205) | GI50 (OVCAR-5) | GI50 (HOP-92) | GI50 (SK-MEL-5) | GI50 (RPMI-8226) | GI50 (A498) | GI50 (EKVX) | GI50 (HOP-62)
O=C(/C=C/c1ccc(O)c(O)c1)OCCc1cccc2ccccc12 | 9.44 µM (inactive) | 4.27 µM (inactive) | 1.87 µM (inactive) | 4.54 µM (inactive) | 13.4 µM (inactive) | 6.5 µM (inactive) | 0.948 µM (active) | 3.72 µM (inactive) | 7.85 µM (inactive) | 6.15 µM (inactive) | 3.55 µM (inactive) | 22 µM (inactive) | 5.69 µM (inactive) | 14.4 µM (inactive) | 10.6 µM (inactive) | 2.24 µM (inactive) | 2.3 µM (inactive) | 11.5 µM (inactive) | – | –
O=C(c1ccc([N+](=O)[O-])cc1)N1CCCC1 | > 100 µM (inactive) | 66.1 µM (inactive) | > 100 µM (inactive) | > 100 µM (inactive) | > 100 µM (inactive) | > 100 µM (inactive) | > 100 µM (inactive) | > 100 µM (inactive) | > 100 µM (inactive) | > 100 µM (inactive) | > 100 µM (inactive) | > 100 µM (inactive) | – | > 100 µM (inactive) | > 100 µM (inactive) | > 100 µM (inactive) | > 100 µM (inactive) | > 100 µM (inactive) | > 100 µM (inactive) | > 100 µM (inactive)
CCSC1=C(C#N)C2(CCCCC2)C2=C(O)CC(C)(C)CC2=N1 | 52.7 µM (inactive) | 25.6 µM (inactive) | > 100 µM (inactive) | 34.4 µM (inactive) | > 100 µM (inactive) | 17.3 µM (inactive) | 39.4 µM (inactive) | 32.4 µM (inactive) | 14.2 µM (inactive) | 39.4 µM (inactive) | > 100 µM (inactive) | 53.6 µM (inactive) | > 100 µM (inactive) | > 100 µM (inactive) | 11.4 µM (inactive) | 40.9 µM (inactive) | 70.3 µM (inactive) | 24.4 µM (inactive) | 24.3 µM (inactive) | –
O=C1/C(=C/c2ccccc2)CN(C(=O)CCN2CCOCC2)C/C1=C\c1ccccc1 | 4.38 µM (inactive) | 1.88 µM (inactive) | 2.06 µM (inactive) | 7.16 µM (inactive) | 1.95 µM (inactive) | 2.49 µM (inactive) | 2.01 µM (inactive) | 2.55 µM (inactive) | 2.14 µM (inactive) | 3.16 µM (inactive) | 1.6 µM (inactive) | 5.89 µM (inactive) | 2.74 µM (inactive) | 7.36 µM (inactive) | 9.79 µM (inactive) | 2.17 µM (inactive) | 0.519 µM (active) | 12.9 µM (inactive) | 13.6 µM (inactive) | 8.45 µM (inactive)
COC(=O)Cc1c([C@H]2[C@H](CC(=O)OC)c3ccccc3N2S(=O)(=O)c2ccc(C)cc2)[nH]c2ccccc12 | > 100 µM (inactive) | > 100 µM (inactive) | > 100 µM (inactive) | > 100 µM (inactive) | > 100 µM (inactive) | 0.208 µM (active) | > 28.4 µM (inactive) | > 100 µM (inactive) | > 100 µM (inactive) | > 100 µM (inactive) | > 56.9 µM (inactive) | > 100 µM (inactive) | > 100 µM (inactive) | > 100 µM (inactive) | > 100 µM (inactive) | > 100 µM (inactive) | 7 µM (inactive) | > 100 µM (inactive) | – | > 100 µM (inactive)
CCCCN1CCC(O)(c2cc(C(=O)O)[nH]c2-c2cc(C)no2)C1=O (stereo unspecified) | 43.5 µM (inactive) | > 100 µM (inactive) | > 100 µM (inactive) | > 100 µM (inactive) | > 100 µM (inactive) | > 100 µM (inactive) | > 100 µM (inactive) | > 100 µM (inactive) | > 100 µM (inactive) | > 100 µM (inactive) | > 100 µM (inactive) | – | > 100 µM (inactive) | > 100 µM (inactive) | > 100 µM (inactive) | > 100 µM (inactive) | > 100 µM (inactive) | > 100 µM (inactive) | > 100 µM (inactive) | > 100 µM (inactive)
Cc1nc(N(C(C)C)C(C)C)c(C(C)C)o1 | > 100 µM (inactive) | > 100 µM (inactive) | > 100 µM (inactive) | > 100 µM (inactive) | > 100 µM (inactive) | > 100 µM (inactive) | > 100 µM (inactive) | > 100 µM (inactive) | > 100 µM (inactive) | > 100 µM (inactive) | > 100 µM (inactive) | > 100 µM (inactive) | > 100 µM (inactive) | > 100 µM (inactive) | > 100 µM (inactive) | > 100 µM (inactive) | – | > 100 µM (inactive) | > 100 µM (inactive) | > 100 µM (inactive)
Cc1nc2ccc(Cl)cc2c2c1CCO2 | 24.4 µM (inactive) | 71.9 µM (inactive) | 36.3 µM (inactive) | 63 µM (inactive) | 95.1 µM (inactive) | > 100 µM (inactive) | > 100 µM (inactive) | > 100 µM (inactive) | 92.9 µM (inactive) | > 100 µM (inactive) | > 100 µM (inactive) | 94.4 µM (inactive) | 83.9 µM (inactive) | – | 80 µM (inactive) | 68.5 µM (inactive) | > 100 µM (inactive) | 71 µM (inactive) | 17.1 µM (inactive) | > 100 µM (inactive)
CCCCCCCC1c2cc3nc(cc4[nH]c(cc5nc(cc([nH]2)[C@@]1(C)CC(=O)N(C)C)C(C)=C5CCC(=O)O)c(CCC(=O)O)c4C)C=C3C (stereo partly specified) | 17.8 µM (inactive) | 18.5 µM (inactive) | 31 µM (inactive) | 50.2 µM (inactive) | 18.6 µM (inactive) | 19.9 µM (inactive) | 18.4 µM (inactive) | 18.5 µM (inactive) | 14.9 µM (inactive) | 20.4 µM (inactive) | 24.9 µM (inactive) | – | 16.7 µM (inactive) | 25.5 µM (inactive) | 21.2 µM (inactive) | 29.7 µM (inactive) | 17.7 µM (inactive) | 33.3 µM (inactive) | 55.8 µM (inactive) | 20.5 µM (inactive)
COC(=O)C1=NN2c3ccccc3CN([C@@H](C)c3ccccc3)C(=O)[C@@H]2[C@H]1c1ccccc1 | > 100 µM (inactive) | > 100 µM (inactive) | > 100 µM (inactive) | > 100 µM (inactive) | > 100 µM (inactive) | > 100 µM (inactive) | 43.4 µM (inactive) | > 100 µM (inactive) | > 100 µM (inactive) | 32.1 µM (inactive) | > 100 µM (inactive) | > 100 µM (inactive) | > 100 µM (inactive) | > 100 µM (inactive) | > 100 µM (inactive) | > 100 µM (inactive) | – | > 100 µM (inactive) | > 100 µM (inactive) | > 100 µM (inactive)
CN(C)c1ccc(C(=NN)c2ccc(N(C)C)cc2)cc1 | 1.98 µM (inactive) | 0.506 µM (active) | 0.0818 µM (active) | 1.3 µM (inactive) | 0.443 µM (active) | 53.3 µM (inactive) | 0.25 µM (active) | 1.46 µM (inactive) | 1.77 µM (inactive) | 0.179 µM (active) | 0.358 µM (active) | 3.52 µM (inactive) | 0.344 µM (active) | 4.95 µM (inactive) | 14.5 µM (inactive) | 0.447 µM (active) | 0.859 µM (active) | 4.93 µM (inactive) | 4.74 µM (inactive) | 1.9 µM (inactive)
O=c1c2cc(Br)ccc2oc2ccc(Br)cc12 | > 100 µM (inactive) | > 100 µM (inactive) | > 100 µM (inactive) | > 100 µM (inactive) | > 100 µM (inactive) | > 100 µM (inactive) | > 100 µM (inactive) | > 100 µM (inactive) | > 100 µM (inactive) | > 100 µM (inactive) | > 100 µM (inactive) | > 100 µM (inactive) | > 100 µM (inactive) | > 100 µM (inactive) | > 100 µM (inactive) | > 100 µM (inactive) | > 100 µM (inactive) | > 100 µM (inactive) | – | –
COC(=O)C1=C(O)C(C(=O)OC)[C@@]2(O)[C@@H](C(=O)OC)C(c3ccc(OC(=O)/C=C/c4ccccc4)cc3)C[C@@H]1[C@@H]2C(=O)OC (stereo partly specified) | 3.06 µM (inactive) | 4.36 µM (inactive) | 3.24 µM (inactive) | 12.6 µM (inactive) | 3.66 µM (inactive) | 25.1 µM (inactive) | 5.3 µM (inactive) | 13.3 µM (inactive) | 8.22 µM (inactive) | 8.41 µM (inactive) | 5.37 µM (inactive) | 22.6 µM (inactive) | 10.1 µM (inactive) | 12.1 µM (inactive) | 29.4 µM (inactive) | 10.6 µM (inactive) | – | 34.8 µM (inactive) | 12.3 µM (inactive) | 23.8 µM (inactive)
C=C(CN(C)C)C(=O)c1ccccc1[N+](=O)[O-] | 16.1 µM (inactive) | 17.9 µM (inactive) | 14.5 µM (inactive) | > 57.8 µM (inactive) | 19.2 µM (inactive) | 7.76 µM (inactive) | 3.56 µM (inactive) | 16.9 µM (inactive) | 16.3 µM (inactive) | 19.2 µM (inactive) | 31.1 µM (inactive) | 30.1 µM (inactive) | 7.8 µM (inactive) | 15.8 µM (inactive) | 9.14 µM (inactive) | 18.8 µM (inactive) | – | > 57.8 µM (inactive) | > 43.5 µM (inactive) | 38.7 µM (inactive)
